From US11298569B2 (priority 2016, dated 2022)
Where two headings read alike, the source gives them in different places.

Experiments:
morphine-dependent rats = test: Naloxone-precipitated morphine withdrawal behaviours in rats; assay type: in vivo, rat; conditions: for morphine withdrawal: morphine-dependent rats
Experimental: (§1) Control rats and mice received saline and were challenged with naloxone on day 5. […] Jumping, teeth chattering, wet-dog shakes, headshakes, and grooming behaviors were evaluated at 5-min intervals for a total test period of 30 minutes and a standardized score of 0 to 3 was assigned to each behavior. Allodynia, piloerection, salivation, ejaculation, and tremorsitwitchina were also evaluated, with one point given to the presence of the behavior during each 5-min interval. All signs were counted and compiled to yield a cumulative withdrawal score. Rats and mice were weighed before and after naloxone challenge to calculate weight loss. In all behavioral studies, experimenters were blind to the drug treatments and genetic profile of rats and mice.
(§2) All control animals received intrathecal saline.
Both mefloquine and probenecid were reconstituted in β-cyclodextrin (Sigma), and control animals received systemic β-cyclodextrin.

Panx1 [1] = biological target: T1, Panx1 (Mus musculus, UniProt Q9JIP4); assay type: cell-based; conditions: for ATP release: morphine-treated cultured microglia stimulated with naloxone
T1 construct: endogenous in cells; host or cells: BV-2 microglia
T1 sequence (Q9JIP4 whole entry): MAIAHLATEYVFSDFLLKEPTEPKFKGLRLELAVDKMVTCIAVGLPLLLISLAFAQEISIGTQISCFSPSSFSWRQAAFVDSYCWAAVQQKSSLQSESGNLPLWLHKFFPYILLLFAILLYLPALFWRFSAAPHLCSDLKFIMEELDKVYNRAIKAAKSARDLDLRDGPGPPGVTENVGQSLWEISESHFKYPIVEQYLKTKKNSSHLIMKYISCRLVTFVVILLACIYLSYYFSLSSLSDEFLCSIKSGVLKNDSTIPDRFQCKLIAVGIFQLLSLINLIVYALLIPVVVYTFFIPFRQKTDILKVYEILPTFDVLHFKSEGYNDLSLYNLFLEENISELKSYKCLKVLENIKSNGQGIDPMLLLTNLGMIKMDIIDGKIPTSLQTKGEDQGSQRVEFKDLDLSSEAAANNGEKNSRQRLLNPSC
Experimental: (§3) BV2 microglia were maintained in DMEM media (Gibco) containing 10% FBS and 1% Pen-Strep at 37° C. with 5% CO2.
ATP level were detected using bioluminescence by combining samples with recombinant firefly luciferase and its substrate D-luciferin (ATP Determination Kit, Life Technologies). The ATPase inhibitor (ARL67156, 1 μM, Sigma) was added to the ECS or ACSF to decrease breakdown of ATP, and samples were incubated in medium for 30 minutes prior to naloxone stimulation to reduce mechanically-induced ATP release. Samples were stimulated with naloxone (10 μM) for 30 minutes, at which point the supernatant was collected. Samples were read immediately after collection using a FilterMax F5 plate reader at 28° C. For experiments for BV-2 microglial cultures, cells were incubated in ^10panx (10 μM), ^scrpanx (10 μM), probenecid (1 mM), mefloquine (40 μM) or ECS for 10 minutes prior to naloxone stimulation. Final ATP measurement was expressed relative to control samples (saline treated and ECS stimulated) from the same plate. For ATP release in spinal cord slices, tamoxifen or vehicle treated Cx3cr1::Panx1^flx/flx mice were perfused with ice-cold oxygenated sucrose-substituted ACSF, and the spinal cord isolated by hydraulic extrusion. The lumbar segment of the spinal cord was sliced into 300 μm sections, and incubated in oxygenated 37° C. ACSF for 1 hour. Spinal cord slices were then transferred to room temperature oxygenated ACSF and stimulated with naloxone. For quantification, ATP release was normalized to total protein of each sample.

Panx1 [2] = biological target: T1, Panx1; assay type: cell-based; conditions: for naloxone potentiation of Panx1 activation (YO-PRO-3 dye uptake): morphine-treated BV-2 microglial cultures, 30 minutes post-BzATP; for BzATP-evoked YO-PRO-1 uptake: morphine-treated microglia, BzATP 150 μM, drug 10 μM
Experimental: as §3
Following a 5-min baseline recording, cells were stimulated with BzATP (150 μM, Sigma) and dye-uptake was recorded for 30 minutes. Cell viability was assessed immediately after 30 minute recording by application of ionomycin (1 μM, Sigma). YO-PRO-1 dye fluorescent emission (491/509) or YO-PRO-3 dye fluorescent emission (612/631) was detected at 37° C. using a FilterMax F5 plate reader (Molecular Devices). Drugs used include ^10panx, ^scrpanx, and naloxone, all of which were used at 10 μM. Drugs were bath applied in YO-PRO-1 dye and incubated at 37° C. for 10 minutes prior to baseline recording. Fluorescent emission at 30 minutes post BzATP application was calculated as percent change from baseline. Representative images of BV-2 YO-PRO-1 dye uptake were taken at room temperature using an inverted microscope (Nikon Eclipse Ti C1S1 Spectral Confocal) with images take at 5 minute intervals for 30 minutes using EasyRatioPro software (PTI). To assess Panx1 function in Cx3cr1::Panx1^flx/flx adult microglia, neuron-glia mixture culture was isolated from adult mice treated with tamoxifen or vehicle for 5 days, then plated in DMEM containing 10% FBS and 1% Pen-Strep and incubated overnight at 37° C. with 5% CO2. Cells were washed and incubated with DAPI (1:10,000) for 10 minutes, and then incubated in YO-PRO-3 dye. Microglia were identified from mixed adult neuronal-glia culture by endogenous expression of eYFP. Fluorescence of individual eYFP positive microglia was recorded for a 5 minute baseline period and then for 30 minutes post BzATP stimulation (300 μM). Fluorescent emission at 30 minutes was calculated and as percent change from baseline.

[3] = tested on: CD11b-positive cells in the lumbar spinal cords; conditions: mouse
Experimental: Mice with microglial specific deletion of Panx1 were generated using a Cre-loxP system. […] Progeny genotype was screened using PCR, and homozygous Panx1^flx/flx and Cx3cr1-cre mice were bred and backcrossed for 8 generations to yield the conditional Cx3cr1::Panx1^flx/flx knock-out mice. To induce Cre recombination, mice were injected intraperitoneally with 1 mg per day tamoxifen (Sigma) for 5 days. Wild-type mice were littermate mice that received vehicle injections (sunflower oil with 10% ethanol) for 5 days, while tamoxifen-related effects were controlled for using Panx1^flx/flx littermate mice that received 5 days of tamoxifen injections.

[4] = tested on: Cx3cr1-cre::Panx1^flx/flx mice; test: Naloxone-precipitated morphine withdrawal behaviours in mice; assay type: in vivo, mouse; conditions: for morphine withdrawal: morphine-dependent Panx1-expressing mice, 15 minutes prior to naloxone
Experimental: as §1, §2

Panx1 [5] = test: Western blot of total Panx1 protein in BV-2 microglial cell line; assay type: cell-based; conditions: morphine for 5-days
Experimental: (§4) Rat spinal cord tissue was rapidly dissected and homogenized in RIPA buffer containing 20 mM TrisHCl (pH 7.5), 150 mM NaCl, and 0.5% Tween-20. Cultured microglia were harvested in 150 μL lysis buffer containing 50 mM TrisHCl, 150 mM NaCl, 10 mM EDTA, 0.1% Triton-X, and 5% Glycerol. Both RIPA and lysis buffers contained protease inhibitors (Sigma) and phosphatase inhibitors (GBiosciences). Total protein was measured using a BioRad RC DC Protein Assay Kit (BioRad) or Pierce BCA Protein Assay Kit (Thermo Scientific). Samples were heated at 95° C. for 5-min in loading buffer (350 mM Tris, 30% glycerol, 1.6% SDS, 1.2% bromophenol blue, 6% β-mercaptoethanol) then electrophoresed on a precast SDS gel (4-12% Tris-HCl, BioRad) and transferred onto a nitrocellulose membrane. […] Membranes were washed and incubated for 2 h at 20-25° C. in fluorophore-conjugated secondary antibodies (anti-rabbit and anti-mouse conjugated IR Dyes 1:5000, Mandel Scientific; or Fluorescent TrueBlot anti-rabbit IgG Dylight 1:1000, Rockland) then quantified by direct detection of secondary antibody fluorescence at 680 and 800 nm (LICOR Odyssey CLx). Band intensity was quantified using Image J, normalized to β-actin and expressed relative to control samples. […]

Panx1 [6] = test: Western blot of total Panx1 protein in rat primary microglia cultures; assay type: cell-based; conditions: morphine for 5-days
Experimental: as §4

OC(c1cc(C(F)(F)F)nc2c(C(F)(F)F)cccc12)C1CCCCN1 (stereo not shown) [mefloquine]
morphine withdrawal (morphine-dependent rats; systemic 45 mg/kg i.p. 1-hour prior to naloxone challenge): significantly ameliorated | ATP release (Panx1 [1]; mefloquine 40 μM): suppressed | naloxone potentiation of Panx1 activation (YO-PRO-3 dye uptake) (Panx1 [2]): blocked

CC/C(=C(\c1ccccc1)c1ccc(OCCN(C)C)cc1)c1ccccc1 [tamoxifen]
recombination in Cre^ER reporter eYFP / CD11b-positive cells [3]: 95±3.1% | morphine withdrawal responses ([4]; tamoxifen given to Panx1^loxp/loxp mice without inducible Cre-recombinase): does not affect morphine withdrawal

FSVYWAQADR (scrPanx) [^scrpanx]
BzATP-evoked YO-PRO-1 uptake (Panx1 [2]): unaffected

C=CCN1CC[C@]23c4c5ccc(O)c4O[C@H]2C(=O)CC[C@@]3(O)[C@H]1C5 [naloxone]
ATP in microglial supernatant (Panx1 [1]; naloxone applied to microglia in culture (10 μM, 30 minutes)): evoked the release of ATP | BzATP-evoked YO-PRO-1 uptake (Panx1 [2]): further potentiated

apyrase
morphine withdrawal ([4]; intrathecal 10 units): striking reduction in withdrawal

CCN(CC)c1ncnc2c1ncn2[C@@H]1O[C@H](COP(=O)(O)OP(=O)(O)C(Br)(Br)P(=O)(O)O)[C@@H](O)[C@H]1O [ARL67156]
morphine withdrawal ([4]; intrathecal 10 nmoles): exacerbated

CN1CC[C@]23c4c5ccc(O)c4O[C@H]2[C@@H](O)C=C[C@H]3[C@H]1C5 [morphine]
total Panx1 protein levels (Panx1 [5]): marked increase | total Panx1 protein levels (Panx1 [6]): marked increase

WRQAAFVDSY (10panx) [^10panx]
withdrawal behaviours (morphine-dependent rats; rats after 5-days of morphine, intrathecal 10 μg, 60-minutes prior to naloxone challenge): significantly attenuated | naloxone-evoked release of ATP (Panx1 [1]; cultured microglia, ^10panx 10 μM for 10 minutes prior to naloxone): blocked | BzATP-evoked YO-PRO-1 uptake (Panx1 [2]): blocked | naloxone-precipitated morphine withdrawal ([4]; Panx1-expressing mice, intrathecal 10 μg before naloxone challenge): significantly attenuated | naloxone-precipitated morphine withdrawal ([4]; mice lacking microglial Panx1, intrathecal 10 μg): did not further reduce withdrawal

CCCN(CCC)S(=O)(=O)c1ccc(C(=O)O)cc1 [probenecid]
morphine withdrawal (morphine-dependent rats; systemic 50 mg/kg i.p. 1-hour prior to naloxone challenge): significantly ameliorated | ATP release (Panx1 [1]; probenecid 1 mM): suppressed | naloxone potentiation of Panx1 activation (YO-PRO-3 dye uptake) (Panx1 [2]): blocked

Nc1ncnc2c1ncn2[C@@H]1O[C@H](COP(=O)(O)OP(=O)(O)OP(O)(O)=S)[C@@H](O)[C@H]1O [ATPγS]
withdrawal behaviors ([4]; morphine-treated Panx1-deficient mice, intrathecal 100 μM together with naloxone challenge): restored a spectrum of withdrawal behaviors | withdrawal behaviors ([4]; saline-treated Panx1-deficient mice, intrathecal 100 μM): not observed
